Measurements from US8952024B2, “Herbicidal pyrimidone derivatives” (E I du Pont de Nemours and Company, priority 2009, dated 2015).

Tests used:
Format in all cases: in vivo
[1] = system: Italian ryegrass (Lolium multiflorum); experiment: Test B pre-/postemergence plant response
In short: (§1)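 Greenhouse herbicide screen. Pre- and postemergence (1- to 4-leaf) spray of compound in solvent/surfactant mixture; loam–sand soil for pre, peat/vermiculite medium for post. Visual control rating 0–100 at 13 to 15 days after treatment.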

[2] = system: galium (catchweed bedstraw, Galium aparine); experiment: Test B pre-/postemergence plant response; settings: Preemergence
In short: as §1

[3] = system: giant foxtail (Setaria faberii); experiment: Test B pre-/postemergence plant response
In short: as §1

[4] = system: nightshade (eastern black nightshade, Solanum ptycanthum); experiment: Test B pre-/postemergence plant response; settings: Preemergence
In short: as §1

[5] = system: ragweed (common ragweed, Ambrosia elatior); experiment: Test B pre-/postemergence plant response
In short: as §1

[6] = system: sunflower (common oilseed sunflower, Helianthus annuus); experiment: Test B pre-/postemergence plant response; settings: Preemergence
In short: as §1

[7] = system: canarygrass (Phalaris minor); experiment: Test B postemergence plant response; settings: Postemergence
In short: (§2)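 Plants grown in peat/vermiculite medium were sprayed postemergence at 2–18 cm height (1- to 4-leaf stage). After 13–15 days in the greenhouse, response was rated visually against untreated controls on a 0–100 scale (0 no effect, 100 complete control).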

[8] = system: chickweed (Stellaria media); experiment: Test B postemergence plant response; settings: Postemergence
In short: as §2

[9] = system: windgrass (Apera spica-venti); experiment: Test B postemergence plant response; settings: Postemergence, scale 0 (no effect) to 100 (complete control)
In short: as §2

[10] = system: winter barley (Hordeum vulgare); experiment: Test B postemergence plant response; settings: Postemergence
In short: as §2

[11] = system: barnyardgrass (Echinochloa crus-galli); experiment: Test B flooded paddy test
In short: (§3)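 Ratings are visual, 0–100 (100 = complete control), taken versus untreated controls 13 to 15 days after treatment in the greenhouse. Compound went straight into paddy water held 3 cm above soil, applied to 2-leaf-stage plants of four species.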

[12] = system: ducksalad (Heteranthera limosa); experiment: Test B flooded paddy test
In short: as §3

[13] = system: rice (Oryza sativa); experiment: Test B flooded paddy test
In short: as §3

[14] = system: umbrella sedge (Cyperus difformis); experiment: Test B flooded paddy test
In short: as §3

[15] = system: goosegrass (Eleusine indica); experiment: Test B pre-/postemergence plant response; settings: Preemergence, 62 g ai/ha; scale 0 to 100, 0 no effect, 100 complete control
[16] = 250 g ai/ha, Preemergence, 0 to 100 scale
[17] = Postemergence, 62 g ai/ha, scale 0 (no effect) to 100 (complete control), 13 to 15 days
[18] = Postemergence, 125 g ai/ha, visual rating after 13 to 15 days, scale 0 (no effect) to 100 (complete control)
[19] = Preemergence, 31 g ai/ha, scale 0 to 100 (0 no effect, 100 complete control)
[20] = Preemergence, 125 g ai/ha, 0 to 100 scale
[21] = 31 g ai/ha, scale 0 to 100 (0 no effect, 100 complete control)
[22] = 62 g ai/ha, scale 0 to 100, 0 no effect, 100 complete control
[23] = 62 g ai/ha, scale 0 (no effect) to 100 (complete control), 13 to 15 days
[24] = 125 g ai/ha, visual rating after 13 to 15 days, scale 0 (no effect) to 100 (complete control)
[25] = 250 g ai/ha, flooded paddy test, visual rating on 0 to 100 scale (0 no effect, 100 complete control) after 13 to 15 days
[26] = Flood (flooded paddy test), 62 g ai/ha, scale of 0 to 100 where 0 is no effect and 100 is complete control, 13 to 15 days

## Cc1cccc(-n2c(-c3cccc(Cl)c3)ncc(C(=O)C3=C(O)CCCC3=O)c2=O)c1 [Compound 45]
[1]; [16]
  Plant response rating, Ryegrass, Italian: 0
[1]; [17]
  Plant response rating, Ryegrass, Italian: 30
[1]; [18]
  Plant response rating, Ryegrass, Italian: 35
[1]; [19]
  Plant response rating, Ryegrass, Italian: 0
[1]; [20]
  Ryegrass, Italian plant response rating: 0
[2]; 250 g ai/ha, 0 to 100 scale
  Plant response rating, Galium: 85
[2]; [21]
  Plant response rating, Galium: 40
[2]; [22]
  Plant response rating, Galium: 40
[2]; 125 g ai/ha, 0 to 100 scale
  Galium plant response rating: 50
[3]; [16]
  Plant response rating, Foxtail, Giant: 75
[3]; Postemergence, 31 g ai/ha, scale 0 to 100 (0 no effect, 100 complete control)
  Plant response rating, Foxtail, Giant: 75
[3]; [17]
  Plant response rating, Foxtail, Giant: 90
[3]; [18]
  Plant response rating, Foxtail, Giant: 95
[3]; Postemergence, 250 g ai/ha, scale 0 to 100
  Foxtail, Giant plant response rating: 98
[3]; [19]
  Plant response rating, Foxtail, Giant: 0
[3]; Preemergence, 62 g ai/ha, scale 0 to 100, 0 no effect, 100 complete control
  Plant response rating, Foxtail, Giant: 0
[3]; [20]
  Foxtail, Giant plant response rating: 45
[4]; 250 g ai/ha, 0 to 100 scale
  Plant response rating, Nightshade: 100
[4]; [21]
  Plant response rating, Nightshade: 98
[4]; [22]
  Plant response rating, Nightshade: 100
[4]; 125 g ai/ha, 0 to 100 scale
  Nightshade plant response rating: 100
[5]; [16]
  Plant response rating, Ragweed: 95
[5]; [17]
  Plant response rating, Ragweed: 85
[5]; [18]
  Plant response rating, Ragweed: 95
[5]; [19]
  Plant response rating, Ragweed: 45
[5]; [20]
  Ragweed plant response rating: 80
[6]; 250 g ai/ha, 0 to 100 scale
  Plant response rating, Sunflower: 75
[6]; [21]
  Plant response rating, Sunflower: 0
[6]; 125 g ai/ha, 0 to 100 scale
  Sunflower plant response rating: 10
[7]; [21]
  Plant response rating, Canarygrass: 10
[7]; [23]
  Plant response rating, Canarygrass: 10
[7]; [24]
  Plant response rating, Canarygrass: 30
[7]; 250 g ai/ha, scale 0 to 100
  Canarygrass plant response rating: 30
[8]; [21]
  Plant response rating, Chickweed: 75
[8]; [23]
  Plant response rating, Chickweed: 85
[8]; [24]
  Plant response rating, Chickweed: 98
[8]; 250 g ai/ha, scale 0 to 100
  Chickweed plant response rating: 100
[9]; 62 g ai/ha, 13 to 15 days
  Plant response rating, Windgrass: 60
[9]; 125 g ai/ha, visual rating after 13 to 15 days
  Plant response rating, Windgrass: 70
[10]; [21]
  Plant response rating, Barley: 5
[10]; [23]
  Plant response rating, Barley: 5
[10]; [24]
  Plant response rating, Barley: 5
[10]; 250 g ai/ha, scale 0 to 100
  Barley plant response rating: 5
[11]; [25]
  Plant response rating, Flood, Barnyardgrass: 30
[11]; [26]
  Plant response rating, Barnyardgrass: 0
[12]; [25]
  Plant response rating, Flood, Ducksalad: 90
[12]; [26]
  Plant response rating, Ducksalad: 20
[13]; [25]
  Plant response rating, Flood, Rice: 20
[13]; [26]
  Plant response rating, Rice: 15
[14]; [25]
  Plant response rating, Flood, Sedge, Umbrella: 85
[14]; [26]
  Plant response rating, Sedge, Umbrella: 70
[15]
  Plant response rating, Goosegrass: 100
